In patent US4307194A, “Inhibitors, obtained from bacilli, for glycoside hydrolases” (Bayer Aktiengesellschaft, priority 1976, dated 1981):

Experiments:
[1] = target: T1, saccharase from swine small intestine mucosa (Sus scrofa, UniProt P56729); experiment: Saccharase test (saccharase inhibitor units, SIU); type: biochemical; conditions: solid product
T1 construct: sucrase subunit cut from the sucrase-isomaltase precursor
Protocol: A saccharase inhibitor unit (SIU) is defined as the amount of inhibitor which inhibits two saccharase units to the extent of 50%. A saccharase unit (SU) is the amount of enzyme which, under the test conditions indicated below, splits 1 μmol of sucrose into glucose and fructose in one minute. The μmols of glucose formed are determined quantitatively with the aid of the glucose oxidase reaction under conditions under which further splitting of sucrose by saccharase no longer takes place. In order to carry out the test, 1-20 μg of inhibitor, or 1-20 μl of the solution to be tested, are added to 0.05 ml of saccharase solution adjusted to a content of 0.12 SU and the mixture is made up to 0.1 ml with 0.1 M sodium maleate buffer of pH 6.0. Suitably, a solubilised saccharase from swine small intestine mucosa according to B. Borgstrom, A. Dahlquist, Acta Chem. Scand. […] The mixture is equilibrated at 35° C. for 10 minutes and 0.1 ml of a 0.05 M sucrose solution in 0.1 M sodium maleate buffer of pH 6.0, prewarmed to 35° C., is then added. The mixture is incubated at 35° C. for 20 minutes and the saccharase reaction is stopped by adding 1 ml of glucose oxidase reagent and the mixture is incubated for a further 30 minutes at 35° C. […] 1 ml of 50% strength H2 SO4 is then added and the mixture is measured at 545 nm against a corresponding blank value. […]

[2] = tested on: microbial α-glucosidases; conditions: T. NIWA et al. Agr. Biol. Chem. 34, 966; cited from earlier work

T1 sequence (P56729 with tags, fused parts or gaps): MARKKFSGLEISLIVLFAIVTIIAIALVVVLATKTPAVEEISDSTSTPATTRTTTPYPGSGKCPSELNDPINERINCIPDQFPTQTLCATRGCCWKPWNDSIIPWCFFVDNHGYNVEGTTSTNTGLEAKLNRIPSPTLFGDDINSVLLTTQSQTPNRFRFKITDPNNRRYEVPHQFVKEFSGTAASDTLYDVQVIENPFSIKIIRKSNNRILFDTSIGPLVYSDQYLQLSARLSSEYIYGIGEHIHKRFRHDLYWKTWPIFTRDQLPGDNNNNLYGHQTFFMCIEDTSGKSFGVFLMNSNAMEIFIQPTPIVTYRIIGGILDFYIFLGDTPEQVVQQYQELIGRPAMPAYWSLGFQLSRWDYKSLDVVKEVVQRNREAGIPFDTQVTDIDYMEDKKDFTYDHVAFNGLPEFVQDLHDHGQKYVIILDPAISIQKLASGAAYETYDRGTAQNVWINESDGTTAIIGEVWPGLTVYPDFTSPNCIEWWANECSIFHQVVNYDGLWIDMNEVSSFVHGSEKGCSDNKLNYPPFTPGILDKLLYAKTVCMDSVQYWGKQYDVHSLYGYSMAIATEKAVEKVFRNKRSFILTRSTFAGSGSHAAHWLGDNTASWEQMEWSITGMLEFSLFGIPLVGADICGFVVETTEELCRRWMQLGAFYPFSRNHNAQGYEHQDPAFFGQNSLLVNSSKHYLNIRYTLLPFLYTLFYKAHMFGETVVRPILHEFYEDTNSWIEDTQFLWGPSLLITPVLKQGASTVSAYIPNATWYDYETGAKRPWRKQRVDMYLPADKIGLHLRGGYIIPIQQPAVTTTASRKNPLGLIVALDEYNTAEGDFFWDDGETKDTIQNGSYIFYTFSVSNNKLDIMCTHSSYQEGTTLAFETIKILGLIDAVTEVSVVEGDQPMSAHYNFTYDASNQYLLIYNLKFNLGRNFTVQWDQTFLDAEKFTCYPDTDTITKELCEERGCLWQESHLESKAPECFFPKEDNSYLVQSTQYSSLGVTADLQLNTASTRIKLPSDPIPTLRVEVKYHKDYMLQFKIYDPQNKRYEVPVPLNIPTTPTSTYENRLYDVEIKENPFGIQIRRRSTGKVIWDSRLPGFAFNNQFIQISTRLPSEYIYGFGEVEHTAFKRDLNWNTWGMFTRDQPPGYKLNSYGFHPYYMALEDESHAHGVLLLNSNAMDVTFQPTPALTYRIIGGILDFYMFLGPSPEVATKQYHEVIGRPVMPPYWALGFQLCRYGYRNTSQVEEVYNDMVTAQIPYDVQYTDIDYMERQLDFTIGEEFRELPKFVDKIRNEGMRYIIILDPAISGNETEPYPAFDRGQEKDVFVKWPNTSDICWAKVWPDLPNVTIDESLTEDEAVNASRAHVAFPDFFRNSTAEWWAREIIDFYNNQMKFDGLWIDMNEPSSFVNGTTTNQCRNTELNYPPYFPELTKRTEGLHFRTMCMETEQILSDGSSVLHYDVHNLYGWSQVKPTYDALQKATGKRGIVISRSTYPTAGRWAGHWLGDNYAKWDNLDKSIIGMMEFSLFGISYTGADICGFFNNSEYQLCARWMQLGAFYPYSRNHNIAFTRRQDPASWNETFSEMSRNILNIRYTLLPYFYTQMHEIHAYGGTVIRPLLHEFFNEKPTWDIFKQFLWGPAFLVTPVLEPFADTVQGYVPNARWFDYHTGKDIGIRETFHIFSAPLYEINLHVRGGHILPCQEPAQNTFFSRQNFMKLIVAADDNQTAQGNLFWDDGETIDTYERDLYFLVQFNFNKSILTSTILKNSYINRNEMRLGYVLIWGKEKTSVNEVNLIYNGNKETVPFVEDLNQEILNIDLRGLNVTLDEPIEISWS

## OC[C@H]1NC[C@H](O)[C@@H](O)[C@@H]1O [Example 34, 1-desoxynojirimycin]
[1]
  specific saccharase-inhibitory activity: 540,000 SIU/g

## OC[C@H]1NC(O)[C@H](O)[C@@H](O)[C@@H]1O (some centres unmarked) [nojirimycin]
[2]
  inhibition of microbial α-glucosidases: inhibits
